Results as given in US12195804B2, “Treatment of squamous cell carcinoma” (Board of Regents, The University of Texas System, priority 2018, dated 2025).

How the values were obtained:
HNSCC cell lines [1] = assay: CellTiter-Glo cell viability assay; format: cell-based, human; settings: for cell viability, NOTCH1MUT and NOTCH1WT cell lines: 0-200 nM
Procedure: Cell viability assay. […] A CellTiter-Glo luminescent cell viability assay (Promega, Madison, WI) was performed as described previously (Castel et al., 2016; Muellner et al., 2011). Inhibitory concentration (ICs) and area under the curve (AUC) values were calculated using the drexplorer R package with a best-fit dose-response model (Zumsteg et al., 2016). The combination indices were calculated using the Chou-Talalay method (Cal et al., 2017) in CalcuSyn (Biosoft, Cambridge, UK). We tested the reproducibility and robustness of the data generated using three quality control parameters as described previously (Bohnacker et al., 2017). These parameters were the concordance correlation coefficient, location shift, and maximum standard deviation between two biological replicates for three technical and two biological replicates. Based on heuristics from our previous screening studies in lung cancer (Bohnacker et al., 2017), the cut-offs for reproducibility were a concordance correlation coefficient greater than 0.8, a location shift less than 0.9, and a standard deviation less than 0.23 based on the normal mixture fit model. Experiments not satisfying these criteria were repeated. The replicate with the smallest experimental variation measured by the median of standard deviation was chosen as a representative of the replicates, and its IC values served as the final values for subsequent analysis.
Cell lines were classified as sensitive based on IC70 values less than the peak plasma concentration for each drug. To determine if cross-comparison of the PI3K/mTOR inhibitors as a class was feasible, their drug sensitivity patterns were compared with those of three cell cycle kinase inhibitors tested previously (Zhang et al., 2017). The PI3K/mTOR pathway inhibitors clustered separately from the cell cycle inhibitors (FIG. 12C).

HNSCC cell lines [2] = assay: Apoptosis assays (Annexin V/propidium iodide, BrdU TUNEL, cleaved PARP/caspase 3); format: cell-based, human; settings: alone, regardless of NOTCH1 status
Procedure: FIGS. 7A-7D: PI3K/mTOR signaling inhibition induces cell death in NOTCH1^MUT but not NOTCH1^WT head and neck squamous cell carcinoma (HNSCC) cell lines in vitro. FIG. 7A. Annexin V/propidium iodide or BrDU-terminal deoxynucleotidyl transferase (TdT) dUTP nick-end labeling (TUNEL) assays were used to measure apoptosis in HNSCC cells with the indicated NOTCH1 and PIK3CA mutations, which were treated with 50 nM GSK2126458 (GSK212) for 24 or 48 hours, respectively. Values are the means±standard deviations of three independent experiments. *p<0.05, unpaired two-tailed Student t-test. FIG. 7B. Western blotting of cleaved PARP (Cl-PARP) and cleaved caspase 3 (Cl-Caspase 3) levels in mutant and wild type cells after GSK212 treatment for 48 hours. FIG. 7C. NOTCH1^MUT and NOTCH1^WT HNSCC cells were plated sparsely and treated with GSK212 at the indicated concentrations for 48 hours. At 14-21 days after treatment, the cells were fixed and stained, images were captured using the GelCount Tumour Colony Counter, and colony numbers and the colorimetric intensity of the colonies were determined by measuring the optical density (OD) at 570 nm. Values are the means±standard deviations of three independent experiments. *p<0.001, unpaired two-tailed Student t-test. FIG. 7D. Three NOTCH1^WT lines (black text and bars) and three NOTCH1^MUT lines (red text and bars) were treated with increasing concentrations of GSK212 for 4 hours, and levels of PI3K/mTOR pathway proteins were measured by Western blot analysis.
Western blot analysis. Western blot analysis was performed as described previously (Ferrarotto et al., 2016). In brief, cells were lysed with ice-cold lysis buffer, and the lysates were centrifuged at 20,000×g for 10 minutes at 4° C. Cell samples containing equal amounts of protein were resolved using sodium dodecyl sulfate-polyacrylamide gel electrophoresis, transferred to nitrocellulose membranes, and immunoblotted with different primary antibodies. Protein expression was detected using a horseradish peroxidase-conjugated secondary antibody (Bio-Rad, Hercules, CA) and electrochemiluminescence reagent (Amersham Biosciences, Pittsburg, PA).
Apoptosis and cell cycle assays. To measure apoptosis, we performed terminal deoxynucleotidyl transferase dUTP nick end labeling (TUNEL) staining with an APO-BRDU Kit (BD Biosciences, San Jose, CA) and Annexin V/propidium iodide staining with an FITC Annexin V Apoptosis Detection Kit (BD Pharmingen, San Diego, CA) as described previously (Chandarlapaty et al., 2011). […] Data were acquired with a three-laser, 10-color Gallios flow cytometer (Beckman Coulter, Brea, CA) and analyzed using Kaluza software (Beckman Coulter, Brea, CA). […]

[3] = system: pAKT, pS6 and p4EBP1 in HNSCC cell lines; assay: Western blot of PI3K pathway signaling after bimiralisib; format: cell-based, human; settings: four HNSCC cell lines, 2 hours
Procedure: Cells were lysed and then resolved by SDS PAGE. Western blot analysis was performed using the indicated antibodies.

HNSCC cell lines [4] = assay: Sensitivity of 69 HNSCC cell lines to bimiralisib; format: cell-based, human
Text: IC50 values were estimated from the best-fit dose-response model selected by calculating residual standard error using the R packages Dose Finding and drc (dose response curve) (Ritz and Streibig 2005, Bornkamp, Bretz et al. 2011). All experiments were done in duplicate and we compared the response between two experiments using concordance correlation coefficient (CCC). The CCC can be computed based on the scaled response as well as original unscaled response. The scaled version should be more relevant since this is actually the data used in IC estimation. […] To identify differentially expressed features between the comparative groups, we applied modified two-sample t-tests using the Limma package. The beta-uniform mixture (BUM) model, described by Pounds and Morris was used to control false discovery rate (FDR) (Pounds and Morris 2003).

HNSCC cell lines [5] = assay: BrdU TUNEL cell death, cell cycle and apoptosis markers after bimiralisib; format: cell-based, human; settings: 5 μM
Text: Apoptotic death in NOTCH1 mutants, but not wt cell lines, was confirmed with cleaved PARP and Caspase 3.

other protein kinases = settings: cited from earlier work
[6] = human, oral; cited from earlier work
[7] = administered orally; cited from earlier work
pAKT, pS6 and p4EBP = settings: therapeutic doses; cited from earlier work
[8] = system: UM22A, HN31 and FaDu HNSCC xenografts; assay: Orthotopic tongue xenografts treated with bimiralisib; settings: for tumor growth: 50 mg/kg PO once daily 28 days
EGFR^MUT lung cancers = settings: EGFRMUT lung cancers; cited from earlier work

COc1c(OCCCN2CCOCC2)ccc2c1N=C(NC(=O)c1cnc(N)nc1)N1CCN=C21 [BAY806946]
cell viability, NOTCH1MUT and NOTCH1WT cell lines (HNSCC cell lines [1]; 72 hours): differential effects

Nc1cc(C(F)(F)F)c(-c2cc(N3CCOCC3)nc(N3CCOCC3)n2)cn1 [BKM120]
effectiveness across HNSCC cell lines (IC70) (HNSCC cell lines [1]; 59 HNSCC cell lines, 72 hours): almost universally effective

CNc1nc(-c2ccc3c(N)n[nH]c3c2)cc(N2C[C@@H](C(=O)NC3CCCCC3)CC[C@H]2C)n1 [GSK2334470]
cell viability (HNSCC cell lines [1]; alone, regardless of NOTCH1 status): little effect
apoptosis (HNSCC cell lines [2]): little effect

NC1(c2ccc(-c3nc4ccn5c(=O)[nH]nc5c4cc3-c3ccccc3)cc2)CCC1 [MK-2206]
cell viability, NOTCH1MUT and NOTCH1WT cell lines (HNSCC cell lines [1]; 72 hours): resistant

Nc1cc(C(F)(F)F)c(-c2nc(N3CCOCC3)nc(N3CCOCC3)n2)cn1 [bimiralisib, 5-(4,6-Dimorpholino-1,3,5-triazin-2-yl)-4-(trifluoromethyl)pyridin-2-amine]
pAKT, pS6 and p4EBP1 (Western blot) [3]: decrease
pAKT, pS6 and p4EBP1 (Western blot) ([3]; listed as Bimiralisib): inhibits PI3K pathway signaling
IC50 (HNSCC cell lines [4]; Homo sapiens, 66 of 69 HNSCC cell lines): < 3 µM
number of cell lines Resistant (HNSCC cell lines [4]; NOTCH1 Mutant cell lines): 3
number of cell lines Sensitive (HNSCC cell lines [4]; NOTCH1 Mutant cell lines): 12
number of cell lines Resistant (HNSCC cell lines [4]; NOTCH1 WT cell lines): 20
number of cell lines Sensitive (HNSCC cell lines [4]; NOTCH1 WT cell lines): 18
cell death by BrdU-TUNEL (HNSCC cell lines [5]; 48 hours, HNSCC lines with NOTCH1 mutations): significantly increased
cell cycle effect (HNSCC cell lines [5]; HNSCC NOTCH1wt lines): arrested cell lines in G1/S
inhibition of other protein kinases (KINOMEscan) (other protein kinases): does not significantly inhibit
Tmax [6]: < 2 h
terminal half-life [6]: 51 h
crossing of the blood-brain barrier [7]: crosses the blood-brain barrier
pAKT, pS6 and p4EBP in tumor tissue (pAKT, pS6 and p4EBP): marked decreases
tumor growth ([8]; FaDu (NOTCH1wt)): not affected
tumor growth ([8]; UM22A and HN31 (NOTCH1 inactivating mutations)): significant reduction of tumor growth
body weight ([8]; 50 mg/kg PO once daily, 28 days, mice): without body weight loss

C=CC(=O)Nc1cc(Nc2nccc(-c3cn(C)c4ccccc34)n2)c(OC)cc1N(C)CCN(C)C [osimertinib]
response rate (EGFR^MUT lung cancers): about 80%

CO[C@H]1C[C@@H]2CC[C@@H](C)[C@@](O)(O2)C(=O)C(=O)N2CCCC[C@H]2C(=O)O[C@H]([C@H](C)C[C@@H]2CC[C@@H](OP(C)(C)=O)[C@H](OC)C2)CC(=O)[C@H](C)/C=C(\C)[C@@H](O)[C@@H](OC)C(=O)[C@H](C)C[C@H](C)/C=C/C=C/C=C/1C [ridaforolimus]
cell viability, NOTCH1MUT and NOTCH1WT cell lines (HNSCC cell lines [1]; 72 hours): resistant
